Test system: apyrase
Assay: Screen for apyrase inhibitors (Method 1, in vitro phosphate-release absorbance assay)
Type: biochemical
Conditions: inhibitor conc at 1 mM stock, 1 hr room temperature, absorbance 630 nm; rounded average of two assay results
Method in brief: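 Phosphate-release colorimetric assay (Windsor method) in 60 mM Hepes, 3 mM MgCl2, 3 mM CaCl2, 3 mM ATP, pH 6.5, with compound or DMSO control added. Released phosphate developed with ammonium molybdate and ascorbic acid/TCA, then stopped with citrate/acetic acid.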

Structure (SMILES) | % Inhibition of Apyrase
COc1ccc(NC(=O)c2cccc(S(=O)(=O)Nc3ccc4c(c3)OCO4)c2)cc1Cl [I-882, 3-(N-(benzo[d][1,3]dioxol-5-yl)sulfamoyl)-N-(3-chloro-4-methoxyphenyl)benzamide] | 53%
COc1ccc2c(c1)CCCN2C(=O)c1ccc(S(=O)(=O)Nc2ccccc2F)cc1 [I-883, N-(2-fluorophenyl)-4-(6-methoxy-1,2,3,4-tetrahydroquinoline-1-carbonyl)benzenesulfonamide] | 51%
Cc1ccc(NS(=O)(=O)c2ccc(C(=O)N3CCc4cc(S(N)(=O)=O)ccc43)cc2)cc1 [I-884, 1-(4-(N-(p-tolyl)sulfamoyl)benzoyl)indoline-5-sulfonamide] | 48%
CCN(C(=O)c1ccc(S(=O)(=O)N2CCCc3ccccc32)cc1)c1ccccc1 [I-885, 4-((3,4-dihydroquinolin-1(2H)-yl)sulfonyl)-N-ethyl-N-phenylbenzamide] | 47%
O=C(Nc1ccc(NS(=O)(=O)c2ccc3c(c2)OCCO3)cc1)c1cccc(N2CCCC2=O)c1 [I-886, N-(4-((2,3-dihydrobenzo[b][1,4]dioxine)-6-sulfonamido)phenyl)-3-(2-oxopyrrolidin-1-yl)benzamide] | 43%
COc1ccc(NS(=O)(=O)c2ccc(C(=O)Nc3ccc4c(c3)OCCO4)cc2)cc1 [I-887, N-(2,3-dihydrobenzo[b][1,4]dioxin-6-yl)-4-(N-(4-methoxyphenyl)sulfamoyl)benzamide] | 43%
Cc1nc2ccc(NC(=O)c3ccc(S(=O)(=O)N4CCCc5ccccc54)cc3)cc2s1 [I-889, 4-((3,4-dihydroquinolin-1(2H)-yl)sulfonyl)-N-(2-methylbenzo[d]thiazol-6-yl)benzamide] | 39%
CN(c1ccccc1)S(=O)(=O)c1ccc(C(=O)N2CC(=O)Nc3ccccc32)cc1 [I-890, N-methyl-4-(3-oxo-1,2,3,4-tetrahydroquinoxaline-1-carbonyl)-N-phenylbenzenesulfonamide] | 32%
Cc1ccc(NS(=O)(=O)c2ccc(C(=O)N3CC4CCCN4Cc4ccccc43)cc2)cc1 (centres unmarked) [I-891, 4-(2,3,5,10,11,11a-hexahydro-1H-benzo[e]pyrrolo[1,2-a][1,4]diazepine-10-carbonyl)-N-(p-tolyl)benzenesulfonamide] | 30%
COc1ccc([N+](=O)[O-])cc1NS(=O)(=O)c1ccc(C(=O)N2CCc3ccccc32)cc1 [I-892, 4-(indoline-1-carbonyl)-N-(2-methoxy-5-nitrophenyl)benzenesulfonamide] | 29%
Cc1ccccc1NS(=O)(=O)c1ccc(C(=O)Nc2ccccc2C(=O)NC2CC2)cc1 [I-893, N-cyclopropyl-2-(4-(N-(o-tolyl)sulfamoyl)benzamido)benzamide] | 20%
Cc1cccc(NS(=O)(=O)c2ccc(C(=O)Nc3cccc(C(=O)N(C)C)c3)cc2)c1C [I-894, 3-(4-(N-(2,3-dimethylphenyl)sulfamoyl)benzamido)-N,N-dimethylbenzamide] | 18%
O=C(Nc1ccc(N2CCOCC2)cc1)c1ccc(S(=O)(=O)N2CCCc3ccccc32)cc1 [I-895, 4-((3,4-dihydroquinolin-1(2H)-yl)sulfonyl)-N-(4-morpholinophenyl)benzamide] | 10%
COc1ccccc1NC(=O)c1ccc(NS(=O)(=O)c2ccc3c(c2)OCCO3)cc1 [I-898, 4-((2,3-dihydrobenzo[b][1,4]dioxine)-6-sulfonamido)-N-(2-methoxyphenyl)benzamide] | 65%
COc1cccc(S(=O)(=O)Nc2ccc(C(=O)Nc3ccc4c(c3)OCCO4)cc2)c1 [I-903, N-(2,3-dihydrobenzo[b][1,4]dioxin-6-yl)-4-((3-methoxyphenyl)sulfonamido)benzamide] | 62%
Cc1ccc(C)c(S(=O)(=O)Nc2ccc(C(=O)Nc3ccccc3F)cc2)c1 [I-907, 4-((2,5-dimethylphenyl)sulfonamido)-N-(2-fluorophenyl)benzamide] | 61%
O=C(Nc1ccc2c(c1)OC1(CCCC1)O2)c1ccc(NS(=O)(=O)c2ccccc2)cc1 [I-908, 4-(phenylsulfonamido)-N-(spiro[benzo[d][1,3]dioxole-2,1′-cyclopentan]-5-yl)benzamide] | 61%
Cc1cc(S(=O)(=O)Nc2ccc(C(=O)N3c4ccccc4CC3C)cc2)ccc1F (centres unmarked) [I-909, 4-fluoro-3-methyl-N-(4-(2-methylindoline-1-carbonyl)phenyl)benzenesulfonamide] | 60%
O=C(Nc1ccc2c(c1)CCC2)c1ccc(NS(=O)(=O)c2ccc3c(c2)OCCO3)cc1 [I-910, N-(2,3-dihydro-1H-inden-5-yl)-4-((2,3-dihydrobenzo[b][1,4]dioxine)-6-sulfonamido)benzamide] | 60%
CC1Cc2ccccc2N1C(=O)c1ccc(NS(=O)(=O)c2ccccc2)cc1 (centres unmarked) [I-911, N-(4-(2-methylindoline-1-carbonyl)phenyl)benzenesulfonamide] | 59%
O=C(c1ccc(NS(=O)(=O)c2ccc3c(c2)OCCO3)cc1)N1CCCc2ccccc21 [I-912, N-(4-(1,2,3,4-tetrahydroquinoline-1-carbonyl)phenyl)-2,3-dihydrobenzo[b][1,4]dioxine-6-sulfonamide] | 59%
Cc1cccc(NC(=O)c2ccc(NS(=O)(=O)c3ccc(Br)cc3)cc2)c1C [I-913, 4-((4-bromophenyl)sulfonamido)-N-(2,3-dimethylphenyl)benzamide] | 59%
COc1cccc(S(=O)(=O)Nc2ccc(C(=O)Nc3cccc(C(F)(F)F)c3)cc2)c1 [I-916, 4-((3-methoxyphenyl)sulfonamido)-N-(3-(trifluoromethyl)phenyl)benzamide] | 58%
Cc1ccc(NC(=O)c2ccc(NS(=O)(=O)c3ccccc3)cc2)cc1C [I-917, N-(3,4-dimethylphenyl)-4-(phenylsulfonamido)benzamide] | 58%
COc1ccccc1NC(=O)c1ccc(NS(=O)(=O)c2cccc(C(F)(F)F)c2)cc1 [I-919, N-(2-methoxyphenyl)-4-((3-(trifluoromethyl)phenyl)sulfonamido) benzamide] | 58%
O=C(Nc1ccc2c(c1)OCO2)c1ccc(NS(=O)(=O)c2ccc3c(c2)OCCO3)cc1 [I-921, N-(benzo[d][1,3]dioxol-5-yl)-4-((2,3-dihydrobenzo[b][1,4]dioxine)-6-sulfonamido)benzamide] | 57%
Cc1ccc(C)c(S(=O)(=O)Nc2ccc(C(=O)Nc3cccc(C(F)(F)F)c3)cc2)c1 [I-922, 4-((2,5-dimethylphenyl)sulfonamido)-N-(3-(trifluoromethyl)phenyl)benzamide] | 57%
O=C(c1ccc(NS(=O)(=O)c2ccc3c(c2)OCCCO3)cc1)N1CCc2ccccc21 [I-923, N-(4-(indoline-1-carbonyl)phenyl)-3,4-dihydro-2H-benzo[b][1,4]dioxepine-7-sulfonamide] | 57%

Results, then the molecule that gave them:

% Inhibition of Apyrase | Structure (SMILES)
43% | Cc1ccc(NS(=O)(=O)c2ccc(C(=O)Nc3ccc(C)c(C)c3)cc2)cc1 [I-888, N-(3,4-dimethylphenyl)-4-(N-(p-tolyl)sulfamoyl)benzamide]
65% | Cc1ccc(NC(=O)c2ccc(NS(=O)(=O)c3ccc(F)c(F)c3)cc2)cc1 [I-899, 4-((3,4-difluorophenyl)sulfonamido)-N-(p-tolyl)benzamide]
65% | CCOc1ccc(NC(=O)c2ccc(NS(=O)(=O)c3cccc(C(F)(F)F)c3)cc2)cc1 [I-900, N-(4-ethoxyphenyl)-4-((3-(trifluoromethyl)phenyl)sulfonamido) benzamide]
64% | O=C(Nc1ccc(SC(F)F)cc1)c1ccc(NS(=O)(=O)c2cccc([N+](=O)[O-])c2)cc1 [I-901, N-(4-((difluoromethyl)thio)phenyl)-4-((3-nitrophenyl)sulfonamido)benzamide]
64% | O=C(Nc1ccc(F)cc1)c1ccc(NS(=O)(=O)c2ccc(Cl)c([N+](=O)[O-])c2)cc1 [I-902, 4-((4-chloro-3-nitrophenyl)sulfonamido)-N-(4-fluorophenyl)benzamide]
62% | O=C(Nc1cccc(F)c1)c1ccc(NS(=O)(=O)c2ccccc2)cc1 [I-904, N-(3-fluorophenyl)-4-(phenylsulfonamido)benzamide]
61% | Cc1cccc(NC(=O)c2ccc(NS(=O)(=O)c3ccc(F)c(Cl)c3)cc2)c1 [I-905, 4-((3-chloro-4-fluorophenyl)sulfonamido)-N-(m-tolyl)benzamide]
61% | O=C(Nc1cccc(Cl)c1)c1ccc(NS(=O)(=O)c2ccc(F)c(F)c2)cc1 [I-906, N-(3-chlorophenyl)-4-((3,4-difluorophenyl)sulfonamido)benzamide]
59% | CCOc1ccc(NC(=O)c2ccc(NS(=O)(=O)c3ccccc3)cc2)cc1 [I-914, N-(4-ethoxyphenyl)-4-(phenylsulfonamido)benzamide]
59% | COc1ccccc1NC(=O)c1ccc(NS(=O)(=O)c2ccc(Cl)c(C(F)(F)F)c2)cc1 [I-915, 4-((4-chloro-3-(trifluoromethyl)phenyl)sulfonamido)-N-(2-methoxyphenyl)benzamide]
58% | Cc1ccc(NC(=O)c2ccc(NS(=O)(=O)c3ccc(F)cc3)cc2)cc1C [I-918, N-(3,4-dimethylphenyl)-4-((4-fluorophenyl)sulfonamido)benzamide]
57% | Cc1cc(S(=O)(=O)Nc2ccc(C(=O)Nc3ccc4c(c3)OCO4)cc2)ccc1F [I-920, N-(benzo[d][1,3]dioxol-5-yl)-4-((4-fluoro-3-methylphenyl)sulfonamido)benzamide]
57% | Cc1ccc(NC(=O)c2ccc(NS(=O)(=O)c3ccc(F)c(F)c3)cc2)cc1F [I-924, 4-((3,4-difluorophenyl)sulfonamido)-N-(3-fluoro-4-methylphenyl)benzamide]

— US12685312B2, “Sulfonamide apyrase inhibitors” (Texas Crop Science, Inc., priority 2022, dated 2026)
